The values below come from PubChem BioAssay AID256 (DTP/NCI, 2004).

Where “and” joins values, the source holds several entries; their conditions need not be identical. Identical values can stand only once. Toxic doses and inconclusive results are not listed.

The test concerns CD2F1 mice, L1210 leukemia ip, survival T/C. In words: NCI In Vivo Anticancer Drug Screen. Data for tumor model L1210 Leukemia (intraperitoneal) in CD2F1 (CDF1) mice. Conditions: higher = longer survival. The essentials:
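Vehicle-treated tumor-bearing mice served as controls (C) for compound-treated mice (T). Reported figure is T divided by C.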

[1] abbreviates: endpoint: mean survival time, dose: 100.0 mg/kg/injection, schedule: Q04DX003 (ip), vehicle: saline with Tween-80.
Setting [2] is: endpoint: mean survival time, dose: 200.0 mg/kg/injection, schedule: Q04DX003 (ip), vehicle: saline with Tween-80.
Setting [3] is: endpoint: mean survival time, dose: 400.0 mg/kg/injection, schedule: Q04DX003 (ip), vehicle: saline with Tween-80.
Where [4] appears, read: endpoint: mean survival time, dose: 100.0 mg/kg/injection, schedule: Q01DX009 (ip), vehicle: saline with Tween-80.
[5] abbreviates: endpoint: mean survival time, dose: 200.0 mg/kg/injection, schedule: Q01DX009 (ip), vehicle: saline with Tween-80.
The mark [6] stands for this setting: endpoint: mean survival time, dose: 400.0 mg/kg/injection, schedule: Q01DX009 (ip), vehicle: saline with Tween-80.
Where [7] appears, read: endpoint: mean survival time, dose: 100.0 mg/kg/injection, schedule: Q04DX003 (ip), vehicle: saline.
The mark [8] stands for this setting: endpoint: mean survival time, dose: 12.5 mg/kg/injection, schedule: Q01DX009 (ip), vehicle: saline with Tween-80.
[9] abbreviates: endpoint: mean survival time, dose: 25.0 mg/kg/injection, schedule: Q01DX009 (ip), vehicle: saline with Tween-80.
[10] abbreviates: endpoint: mean survival time, dose: 50.0 mg/kg/injection, schedule: Q01DX009 (ip), vehicle: saline with Tween-80.

`C1CCC(C2CCCC[N-]2)[N-]C1.[Cl][Pt].[NH-]C(CC(N)=O)C(=O)O` (centres undefined): the T/C by setting is: (endpoint: median survival time, dose: 10.0 mg/kg/injection, schedule: Q04DX003 (ip), vehicle: saline) 101 % of control; (endpoint: median survival time, dose: 20.0 mg/kg/injection, schedule: Q04DX003 (ip), vehicle: saline) 93 % of control; (endpoint: median survival time, dose: 40.0 mg/kg/injection, schedule: Q04DX003 (ip), vehicle: saline) 98 % of control; (endpoint: median survival time, dose: 80.0 mg/kg/injection, schedule: Q04DX003 (ip), vehicle: saline) 91 % of control and 104 % of control; (endpoint: median survival time, dose: 160.0 mg/kg/injection, schedule: Q04DX003 (ip), vehicle: saline) 95 % of control; (endpoint: median survival time, dose: 320.0 mg/kg/injection, schedule: Q04DX003 (ip), vehicle: saline) 86 % of control.

For `CC1CN(Cc2ccccc2)C1`, the T/C by setting is: (endpoint: mean survival time, dose: 12.5 mg/kg/injection, schedule: Q01DX001 (ip), vehicle: acetone) 86 % of control; (endpoint: mean survival time, dose: 25.0 mg/kg/injection, schedule: Q01DX001 (ip), vehicle: acetone) 96 % of control; (endpoint: mean survival time, dose: 50.0 mg/kg/injection, schedule: Q01DX001 (ip), vehicle: acetone) 94 % of control.

For `COC(=O)C1=CNC=C(C(=O)OC)C1c1ccccc1Cl`, the T/C under setting [1] is 95 % of control, the T/C under setting [2] was 97 % of control and the T/C under setting [3] is 89 % of control.

As for `Cc1ccc(C(C#N)Nc2ccccc2)cc1` (centres undefined), the T/C by setting is: under setting [4], 103 % of control; under setting [1], 100 % of control; under setting [5], 88 % of control; under setting [2], 91 % of control; under setting [6], 93 % of control; under setting [3], 97 % of control.

On to `CCC(=O)O[C@H]1CC[C@H]2[C@@H]3C[C@H](F)C4=CC(=O)CC[C@]4(C)[C@H]3CC[C@]12C`, for which the T/C by setting is: under setting [7], 102 % of control; (endpoint: mean survival time, dose: 200.0 mg/kg/injection, schedule: Q04DX003 (ip), vehicle: saline) 95 % of control; (endpoint: mean survival time, dose: 400.0 mg/kg/injection, schedule: Q04DX003 (ip), vehicle: saline) 95 % of control.

For the molecule `CCCC(C(CC)CN(C)C)N(C)C` (centres undefined), the T/C by setting is: (endpoint: mean survival time, dose: 3.12 mg/kg/injection, schedule: Q04DX002 (ip), vehicle: saline with Tween-80) 113 % of control; (endpoint: mean survival time, dose: 6.25 mg/kg/injection, schedule: Q04DX002 (ip), vehicle: saline with Tween-80) 106 % of control; (endpoint: mean survival time, dose: 12.5 mg/kg/injection, schedule: Q04DX002 (ip), vehicle: saline with Tween-80) 107 % of control; (endpoint: mean survival time, dose: 25.0 mg/kg/injection, schedule: Q01DX001 (ip), vehicle: saline with Tween-80) 120 % of control; (endpoint: mean survival time, dose: 25.0 mg/kg/injection, schedule: Q04DX002 (ip), vehicle: saline with Tween-80) 103 % of control; (endpoint: mean survival time, dose: 50.0 mg/kg/injection, schedule: Q01DX001 (ip), vehicle: saline with Tween-80) 100 % of control. Also, the T/C (endpoint: mean survival time, dose: 100.0 mg/kg/injection, schedule: Q01DX001 (ip), vehicle: saline with Tween-80) was 100 % of control.

Consider `CCCCCCCCCCCCCCCCOc1ccc(OCCCCCCCCC)cc1`, for which the T/C (endpoint: mean survival time, dose: 400.0 mg/kg/injection, schedule: Q01DX001 (ip), vehicle: saline with Tween-80) is 86 % of control.

With `Cc1nc(-c2ccccc2)[nH]c(=O)c1CCO`, the T/C is 100 % of control under setting [1], 100 % of control under setting [2] and 111 % of control under setting [3].

For `Cc1c2ncnc-2ncn1O`, the T/C by setting is: (endpoint: mean survival time, dose: 25.0 mg/kg/injection, schedule: Q04DX003 (ip), vehicle: saline) 97 % of control; (endpoint: mean survival time, dose: 50.0 mg/kg/injection, schedule: Q04DX003 (ip), vehicle: saline) 101 % of control; under setting [7], 104 % of control.

Take `COc1cc(OC)c(NC(=O)Nc2ccc(NC(C)=O)cc2)cc1Cl`: the T/C is 103 % of control under setting [8], 103 % of control under setting [9] and 103 % of control under setting [10].

`CCOC(=O)[C@]1(Br)CC[C@@]1(Br)C(=O)OCC`: the T/C runs as follows: under setting [8], 96 % of control; under setting [9], 95 % of control and 96 % of control; under setting [10], 92 % of control and 96 % of control; under setting [4], 93 % of control and 101 % of control; under setting [5], 100 % of control and 101 % of control; under setting [6], 98 % of control and 106 % of control.

On to `CC1(C)N=C(N)N=C(N)N1c1ccccc1Cl`, for which the T/C is 103 % of control (endpoint: mean survival time, dose: 25.0 mg/kg/injection, schedule: Q04DX002 (ip), vehicle: saline) and 100 % of control (endpoint: mean survival time, dose: 50.0 mg/kg/injection, schedule: Q04DX002 (ip), vehicle: saline).

Take `O=C1c2ccccc2C(=O)c2c(NCCNCCO)ccc(O)c21`: the T/C runs as follows: (endpoint: mean survival time, dose: 1.25 mg/kg/injection, schedule: Q01DX009 (ip), vehicle: suspension in saline) 100 % of control; (endpoint: mean survival time, dose: 2.5 mg/kg/injection, schedule: Q01DX009 (ip), vehicle: suspension in saline) 101 % of control and 112 % of control; (endpoint: mean survival time, dose: 5.0 mg/kg/injection, schedule: Q01DX009 (ip), vehicle: suspension in saline) 113 % of control and 103 % of control; (endpoint: mean survival time, dose: 7.5 mg/kg/injection, schedule: Q01DX009 (ip), vehicle: saline) 193 % of control; (endpoint: mean survival time, dose: 10.0 mg/kg/injection, schedule: Q01DX009 (ip), vehicle: suspension in saline) 118 % of control and 101 % of control; (endpoint: mean survival time, dose: 15.0 mg/kg/injection, schedule: Q01DX009 (ip), vehicle: saline) 151 % of control. For the same molecule, the T/C runs as follows: (endpoint: mean survival time, dose: 20.0 mg/kg/injection, schedule: Q01DX009 (ip), vehicle: suspension in saline) 112 % of control; (endpoint: mean survival time, dose: 40.0 mg/kg/injection, schedule: Q01DX009 (ip), vehicle: suspension in saline) 156 % of control; (endpoint: median survival time, dose: 5.0 mg/kg/injection, schedule: Q01DX009 (ip), vehicle: suspension in saline) 123 % of control and 110 % of control; (endpoint: median survival time, dose: 10.0 mg/kg/injection, schedule: Q01DX009 (ip), vehicle: suspension in saline) 115 % of control; (endpoint: median survival time, dose: 20.0 mg/kg/injection, schedule: Q01DX009 (ip), vehicle: suspension in saline) 150 % of control; (endpoint: median survival time, dose: 40.0 mg/kg/injection, schedule: Q01DX009 (ip), vehicle: suspension in saline) 153 % of control and 155 % of control. Besides, the T/C (endpoint: median survival time, dose: 80.0 mg/kg/injection, schedule: Q01DX009 (ip), vehicle: suspension in saline) is 158 % of control and 183 % of control.

In the case of `O=C(NN=C1CCCCC1)c1ccccc1`, the T/C was 100 % of control under setting [4]; 97 % of control under setting [1]; 100 % of control under setting [5]; 100 % of control under setting [2]; 101 % of control under setting [3].
